The values that follow come from patent publication US20150080844A1, “THERAPY FOR KIDNEY DISEASE AND/OR HEART FAILURE BY INTRADERMAL INFUSION” (Medtronic, Inc., priority 2012, published 2015).

Where two headings read alike, the source gives them in different places.

Details of series [1]: species or system humans. Conditions: in vivo. The method, then:
(§1) Osterode et al. published plasma concentration data for humans injected with ANP by either SQ or IV bolus. FIG. 5 presents the IV bolus data (FIG. 5A) and SQ bolus data (FIG. 5B) from the Osterode et al. with selected points digitized shown by open circles.
The digitized data points from FIG. 5A and FIG. 5B were baseline-corrected and analyzed using a commercial pharmacokinetic analysis software package (Phoenix v6.2, Pharsight, Cary, N.C.). Non-compartmental analysis (NCA) was performed first, followed by compartmental modeling. Bioavailability for administration into the SQ space (F) was estimated by dividing the area-under-the-curve (AUC) for the SQ bolus (FIG. 5B) by the AUC IV bolus (FIG. 5A), which was assumed to have 100% bioavailability. The slope of the terminal phase (λZ) for the IV and SQ data from FIG. 5 was estimated using linear regression. The estimate for λZ was converted to a half-life (t1/2) using Equation 1. […]
Similarly, the one-compartmental model for SQ bolus injection can be modeled by Equations 4 and 5, where Aa is the amount of drug in the injection site (pmol), ka is the absorption rate constant (1/min), and F is the bioavailability as a unitless decimal. […] Clearance (CL) and t½ were calculated as secondary model parameters. […]

Series [2] is described as follows: clinical. Also noted: species or system humans. To be noted: in vivo; for bioavailability: F (bioavailability). The procedure: as §1
The digitized data points from FIG. 5A and FIG. 5B were baseline-corrected and analyzed using a commercial pharmacokinetic analysis software package (Phoenix v6.2, Pharsight, Cary, N.C.). Non-compartmental analysis (NCA) was performed first, followed by compartmental modeling. Bioavailability for administration into the SQ space (F) was estimated by dividing the area-under-the-curve (AUC) for the SQ bolus (FIG. 5B) by the AUC IV bolus (FIG. 5A), which was assumed to have 100% bioavailability. The slope of the terminal phase (λZ) for the IV and SQ data from FIG. 5 was estimated using linear regression. The estimate for λZ was converted to a half-life (t1/2) using Equation 1.
Similarly, the one-compartmental model for SQ bolus injection can be modeled by Equations 4 and 5, where Aa is the amount of drug in the injection site (pmol), ka is the absorption rate constant (1/min), and F is the bioavailability as a unitless decimal. The initial estimates for primary model parameters ke and V/F were taken from the results of the NCA analysis of the IV data (ke=λZ) from the IV bolus data in FIG. 5A from Osterode et al. The initial estimate for the primary model parameter ka was taken from the results of the NCA analysis of the SQ data (ka=λZ) from the SQ bolus data in FIG. 5B. Clearance (CL) and t½ were calculated as secondary model parameters.
Table 1 reports the values for AUC, elimination t1/2, volume of distribution (V) and clearance (CL) reported by Osterode et al. compared to those obtained from the NCA analysis of the digitized data as described above.
The results of the one-compartment modeling of the data from Osterode et al. are reported in Table 2 and FIG. 7, where the present NCA results are also included for comparison. FIGS. 7A (log scale) and 7B (non-log scale) show a model for a 50 μg IV bolus and FIGS. 7C (log scale) and 7D (non-log scale) show a model for a 50 μg SQ bolus. Both the NCA and compartmental analysis estimate the bioavailability to be approximately 20%. It is notable that the estimates for ka from the SQ bolus data are nearly identical for the NCA and compartmental analysis (0.039 min^−1), while the compartmental analysis estimate for ke is 2.6-times greater than the NCA estimate (0.26 vs. 0.099 min^−1).

The conditions of series [3]: in vivo, iv, 50 ug; cited from earlier work.
The conditions of series [4]: in vivo, cited from earlier work.
The conditions of series [5]: intradermal delivery; literature; cited from earlier work.

In the case of `CC[C@H](C)[C@@H]1NC(=O)[C@H](CCCNC(=N)N)NC(=O)[C@H](CC(=O)O)NC(=O)[C@H](CCSC)NC(=O)[C@H](CCCNC(=N)N)NC(=O)CNC(=O)CNC(=O)[C@H](Cc2ccccc2)NC(=O)[C@@H](NC(=O)[C@H](CO)NC(=O)[C@H](CO)NC(=O)[C@H](CCCNC(=N)N)NC(=O)[C@H](CCCNC(=N)N)NC(=O)[C@H](CC(C)C)NC(=O)[C@@H](N)CO)CSSC[C@@H](C(=O)N[C@@H](CC(N)=O)C(=O)N[C@@H](CO)C(=O)N[C@@H](Cc2ccccc2)C(=O)N[C@@H](CCCNC(=N)N)C(=O)N[C@@H](Cc2ccc(O)cc2)C(=O)O)NC(=O)CNC(=O)[C@H](CC(C)C)NC(=O)CNC(=O)[C@H](CO)NC(=O)[C@H](CCC(N)=O)NC(=O)[C@H](C)NC(=O)CNC1=O` [ANP, atrial natriuretic peptide], the AUC (as a rule, concentration integrated over time) in series [1] (human, iv, 50 ug) is 1731 pmol·min/L; in series [2] (human, 50 ug), 344 pmol·min/L; in series [3], 1793 pmol·min/L; in series [4] (50 ug), 345 pmol·min/L. Also, the ke in series [1] turned out to be 0.099 min⁻¹; in series [2], 0.26 min⁻¹. Moreover, the bioavailability (commonly dose-corrected exposure relative to a reference, in per cent) is approximately 20% in series [2] (human) and approximately 20% in series [2] (human, iv). The “F (bioavailability)” value in series [2] (human, iv) is listed as 19.9%; in series [4] (human) it was 19.2%. The V/F in series [2] was 167 L. Also, the “compartmental analysis estimate for ke relative to NCA estimate” value in series [2] is recorded as 2.6 times. In series [2], the “ke/ka (elimination greater than absorption)” value is listed as 6.6. Further, in series [4] (50 ug), the “mean terminal half-life, SQ bolus compared to IV bolus” value is 3 fold.
For Somatropin, the “bioavailability (in words)” value in series [5] is given as “high bioavailability”.
Consider Entanercept, for which the “bioavailability (in words)” value in series [5] is on record as “high bioavailability”.
